The values that follow come from US9238026B2, “Inhibitors of viral replication, their process of preparation and their therapeutical uses” (priority 2011, dated 2016).

One may read the EC50 as the concentration that produces a half-maximal response.

For one experiment, the system named is NL4-3 strain of HIV-1. The experiment in a line: microbe, parasite or virus in culture. The conditions noted are these: Human immunodeficiency virus 1, NL43, 120 h; concentration leading to 50% of cyto-protection; MT4 cells infected with NL4.3 virus; 5 days incubation; CellTiter-Glo; read-out: EC50. It is filed as cell-based. The procedure:
The antiviral activity, particularly against HIV, of compounds according to the invention is evaluated by the protocol described below.
Preparation of Virus stock of the NL4-3 strain of HIV-1
The virus was prepared as described in Lopez et al (Lopez et al, Proc Natl Acad Sci USA., 2006, 103(40):14947-52, by transfecting 2×10^6 293T cells (CRL-1573, ATCC) with following modifications: 6 μg of NL4-3 proviral DNA molecular clone were mixed with Fugene 6 transfection reagent from Roche, and used according to manufacturer's instructions. Forty eight hours later, transfected cell supernatants were harvested, filtered through 0.45-μm-pore-size filters, quantified for HIV-1 p24 antigen by using a Innotest HIV antigen mAb assay (Ingen) according to manufacturer's instructions, and used in infection experiments.
Serial dilutions of compounds to be tested were prepared in complete RPMI medium from 10 mM DMSO stock solutions, and distributed in a volume of 20 μl in 96 well Falcon 353072 Microtest™ tissue culture plate, in order to get 0.5% DMSO final concentration in each well, after the addition of infected cells. Control wells contained also 0.5% DMSO final concentration but no compound.
MT4 cells (from the NIH AIDS Research and Reference Reagent Program) in RPMI complete medium were counted (10×10^6 cells per well in Falcon 353047 Multiwell™ 24 well) and infected for 2 hours at 37°, at a multiplicity of infection (moi) of 0.0001-0.00001. Cells were then centrifuged 3 min at 3000 rpm, and washed two times in 1 ml PBS to remove viruses that have not entered in cells. Infected cells were resuspended in complete RPMI at 1.25×10^6 cells/ml, and […] of infected cells were distributed in each well containing compounds to be tested or control wells. The plates were then incubated at 37° for 5 days.
Assay used to measure the inhibition of HIV replication by the compounds
(according to Gregg S. Jones et al., Antimicrobial Agents and Chemotherapy, 2009, 53 (3): 1194-1203).
After 5 days of incubation, 50 μl of CellTiter-Glo reagent (Promega Biosciences, Inc., Madison Wis., USA) were added to each well. Cell lysis was carried out at room temperature during 10 min, 150 μl of lysates were transferred in Packard Optiplate 96 well, and luminescence was read on a Fluoroskan (Thermo Scientific).
The EC50, or effective concentration 50, is the concentration of compound leading to 50% of cyto-protection in a Cell-Titer-Glo® viability assay based on MT4 cells infected with NL4.3 virus.
For orientation: In ATP-based viability assays light output follows the ATP content of the culture.
For the molecule `Cc1sc(C)c(C(OC(C)(C)C)C(=O)O)c1-c1ccc2c(c1)CCCO2` (stereo not shown) [Example 17, 2-(tert-butoxy)-2-[4-(3,4-dihydro-2H-1-benzopyran-6-yl)-2,5-dimethylthiophen-3-yl]acetic acid], the concentration for a half-maximal effect (EC50) came to 26 µM. The same measure, in the same setting: the same measure for `CC1=C(c2ccc3c(c2)CCCO3)C(C(OC(C)(C)C)C(=O)O)=C(C)S1(=O)=O` (stereo not shown) [Example 18, (tert-butoxy)[4-(3,4-dihydro-2H-1-benzopyran-6-yl)-2,5-dimethyl-1,1-dioxo-1λ^6-thiophen-3-yl]acetic acid]: 34 µM; for `Cc1cccc2sc(C(OC(C)(C)C)C(=O)O)c(-c3ccc4c(c3)CCCO4)c12` (stereo not shown) [Example 23, 2-(tert-butoxy)-2-[3-(3,4-dihydro-2H-1-benzopyran-6-yl)-4-methyl-1-benzothiophen-2-yl]acetic acid]: 23 µM. On the same count and under the same terms, the value for `Cc1cccc2c1C(c1ccc3c(c1)CCCO3)=C(C(OC(C)(C)C)C(=O)O)S2(=O)=O` (stereo not shown) [Example 24, 2-(tert-butoxy)-2-[3-(3,4-dihydro-2H-1-benzopyran-6-yl)-4-methyl-1,1-dioxo-1λ^6-benzothiophen-2-yl]acetic acid] was 11 µM; that for `Cc1sc(C)c(C(OC(C)(C)C)C(=O)O)c1C1=CCCCC1` (stereo not shown) [Example 29, 2-(tert-butoxy)-2-[4-(cyclohex-1-en-1-yl)-2,5-dimethylthiophen-3-yl]acetic acid] was 33 µM. On the same count and under the same terms, the value for `Cc1sc(C)c(C(OC(C)(C)C)C(=O)O)c1C1=CCCCCC1` (stereo not shown) [Example 31, 2-(tert-butoxy)-2-[4-(cyclohept-1-en-1-yl)-2,5-dimethylthiophen-3-yl]acetic acid] was 29 µM; that for `Cc1sc(C)c(C(SC(C)(C)C)C(=O)O)c1-c1ccc2c(c1)CCCO2` (stereo not shown) [Example 32, 2-(tert-butylsulfanyl)-2-[4-(3,4-dihydro-2H-1-benzopyran-6-yl)-2,5-dimethylthiophen-3-yl]acetic acid] was 26 µM; that for `Cc1sc(C)c(C(OC(C)(C)C)C(=O)O)c1-c1ccc2c(c1)CCCC2` (stereo not shown) [Example 39, 2-(tert-butoxy)-2-[2,5-dimethyl-4-(5,6,7,8-tetrahydronaphthalen-2-yl)thiophen-3-yl]acetic acid] was 41 µM.

Take `Cc1sc(Cl)c(-c2ccc3c(c2)CCCO3)c1C(OC(C)(C)C)C(=O)O` (stereo not shown) [Example 44, 2-(tert-butoxy)-2-[5-chloro-4-(3,4-dihydro-2H-1-benzopyran-6-yl)-2-methylthiophen-3-yl]acetic acid]: the EC50 is 16 µM. Still for that read-out and setting: the same measure for `Cc1sc(C)c(C(OC(C)(C)C)C(=O)O)c1-c1ccc(Cl)cc1` (stereo not shown) [Example 50, tert-butoxy-[4-(4-chloro-phenyl)-2,5-dimethyl-thiophen-3-yl]-acetic acid]: 44 µM; for `Cc1sc(C)c(C(OC(C)(C)C)C(=O)O)c1-c1ccccc1Cl` (stereo not shown) [Example 51, tert-butoxy-[4-(2-chloro-phenyl)-2,5-dimethyl-thiophen-3-yl]-acetic acid]: 41 µM; for `CC(C)(C)OC(C(=O)O)c1c(C(F)(F)F)nn(C2CCCCC2)c1-c1ccc2c(c1)CCCO2` (stereo not shown) [Example 54, 2-(tert-butoxy)-2-[1-cyclohexyl-5-(3,4-dihydro-2H-1-benzopyran-6-yl)-3-(trifluoromethyl)-1H-pyrazol-4-yl]acetic acid]: 2.2 µM.

Staying with this experiment, now noted: Human immunodeficiency virus 1, NL43, MT4, 120 h.
Take `Cc1sc(C)c(C(OC(C)(C)C)C(=O)O)c1C1=CCC(C)(C)CC1` (stereo not shown) [Example 52, tert-butoxy-[4-(4,4-dimethyl-cyclohex-1-enyl)-2,5-dimethyl-thiophen-3-yl]-acetic acid]: a half-maximal response (EC50) required 33 µM.
